# Patent publication US5840729A (priority 1995, dated 1998)
# Like-named read-outs stand apart in the source and are kept apart here.
# Assays:
# [1] = molecular target: T1, adenosine A2 receptor (Rattus norvegicus, UniProt P30543); experiment: A2 receptor affinity: displacement of [3H]NECA binding in rat brain striatum membranes; conditions: Table 1
# T1 construct: tissue Charles River (animals); host or cells: striatal membranes of young male rats (C-D strain)
# Procedure: See R. R. Bruns, et al., Characterization of the A-2Adenosine Receptor Labeled by [3H]NECA in Rat Striatal Membranes, Mol. Pharmacol., 29, 331-346 (1986). Young male rats (C-D strain), obtained from Charles River, were killed by decapitation and the brain was removed. Membranes for ligand binding were isolated from rat brain striatum. The tissue was homogenized in 20 vol ice-cold 50 mM Tris-HC1 buffer (pH 7.7) using a polytron (setting for 6 to 20 seconds). The homogenate was centrifuged at 50,000×g for 10 minutes at 4° C. The pellet was again homogenized in a polytron in 20 vol of buffer, and centrifuged as before. The pellet was finally resuspended in 40 vol of 50 mM Tris-HC1 (pH 7.7) per gram of original wet weight of tissue.
# Incubations were carried out at 25° C. for 60 minutes. Each tube was filtered through GF/B glass fiber filters using a vacuum. The filters were rinsed two times with 5 ml of the ice-cold buffer. […] The filters were counted by liquid scintillation spectrometry.
# Specific binding of [^3 H]NECA was measured as the excess over blanks run in the presence of 100 μM 2-chloroadenosine. Total membrane-bound radioactivity was about 2.5% of that added to the test tubes. […] Specific binding to membranes was about 50% of the total bound.
# [2] = molecular target: T2, adenosine A1 receptor (Rattus norvegicus, UniProt P25099)
# T2 sequence (P25099 1-326): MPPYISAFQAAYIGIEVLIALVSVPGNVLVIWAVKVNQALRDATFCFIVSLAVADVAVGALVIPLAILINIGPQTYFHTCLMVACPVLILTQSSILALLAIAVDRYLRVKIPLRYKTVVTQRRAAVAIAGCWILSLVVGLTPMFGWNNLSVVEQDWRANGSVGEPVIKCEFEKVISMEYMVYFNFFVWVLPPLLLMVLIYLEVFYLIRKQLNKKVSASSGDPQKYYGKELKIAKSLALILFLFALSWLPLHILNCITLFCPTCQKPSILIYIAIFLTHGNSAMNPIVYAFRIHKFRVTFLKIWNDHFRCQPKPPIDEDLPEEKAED
# [3] = tested on: rats; experiment: Water maze learning (scopolamine-induced impairment); format: in vivo, rat; conditions: for effect on scopolamine-induced learning impairment: water maze, summary statement; for reversal of scopolamine-induced impairment: scopolamine 1.2 mg/kg
# From the text: In the water maze spatial learning model, rats are required to use distal spatial cues around a circular water tank to navigate to a hidden platform.
# Rats were trained in a 120 -cm diameter water-filled tank to locate a hidden platform submerged just below the surface of the water. The location of the platform remained constant, but for each trial, the animal was required to swim from one of three different starting locations around the edge of the tank. There were no proximal cues in the tank, so the animal had to use a spatial mapping strategy using the distal cues around the room to navigate to the hidden platform. A computerized video tracking system allowed automated acquisition of the data. The animals were given 12 successive training trials during the single training day, using the methods of O. Buresova, et al., Differential Effects Of Cholinergic Blockade On Performance Of Rats In The Water Tank Navigation Task And In A Radial Water Maze, Behavioral Neuroscience, 100, 476-482 (1986). […] After the animal found or was placed on the platform, it was allowed to stay there for 30 seconds. The next trial commenced immediately following the 30 second stay on the platform. Latency to locate the platform was recorded for each trial.
# Separate treatment groups of five animals each were run in each experiment. The VEH--VEH groups received vehicle (distilled water plus Tween) i.p. 40 minutes prior to the first trial and vehicle i.p. 20 min. prior to the first trial. The VEH-SCOP groups received vehicle i.p. at 40 minutes and scopolamine HBr i.p. at 20 minutes. The MDL-SCOP groups received (R)-1,3-dipropyl-8-(1-phenylpropyl)-xanthine or 3,7-dihydro-8[(R)-1-methyl-2-phenylethyl]1,3-dipropyl-1H-purine-2,6-dione i.p. at 40 minutes and scopolamine HBr i.p. at 20 minutes.
# The latency scores for each animal were averaged into four blocks of three trials each (one trial from each starting location). A one-way ANOVA comparing the treatment groups was computed on the scores for each trial block. If the overall ANOVA was statistically significant, comparisons between individual treatment groups were made with Fisher's PLSD test.
# [4] = tested on: hippocampal CA1 neurons; experiment: Hippocampal long-term potentiation, in vitro slice (CA1 population spike); format: cell-based, male Sprague-Dawley rats; conditions: for LTP stabilized level following tetanus / time course of LTP following tetanus: primed burst tetanus; for population spike before and after induction of LTP: hippocampal CA1 neurons
# Procedure: Slices were prepared from male Sprague-Dawley rats. […] Briefly, the hippocampus was rapidly and gently dissected over ice. 400 μ Sections were made with a […] tissue chopper and incubated on the interface of 34° C. […] A recording electrode was placed in the CA1 region of the hippocampus and a stimulating electrode was positioned in the stratum radiatum of the CA3 region of this same slice. […] The signal form the CA1 cell body layer was amplified, filtered (1 Hz-4 KHz), and monitored on an oscilloscope. The evoked waveform was also digitized using a Computerscope A/D board (RC Electronics, Inc., Santa Barbara, Calif.) and stored for analysis using Neuroscope software (Levin and Associates, Denver, Colo.) running on an IBM-AT. In order to insure the viability of the slice, "minimal viability criteria" were established. […] Only preparations that met these three criteria were used. Twenty or more control population spikes were obtained to establish a baseline (at least 10 minutes). In most slices concentrated drug solutions were then diluted into the media for a 20 minute period to establish effects on the baseline population spike. […] One 100 μsec pulse was followed by 4 similar pulses 170, 180, 190, 200 msec later. Drug superfusion was continuous throughout the experiment. […] The compounds were dissolved in DMSO and diluted 1:400 into the perfusion media. […] Each pop spike waveform was digitized, stored, and analyzed by the Neuroscope software. Pop spike amplitude was determined for each waveform and these amplitudes were normalized to pre-tetanus levels. Results were expressed as percent change from this control level and plotted vs. time.
# [5] = tested on: animal models of learning and memory; conditions: G. Schingnitz et al. 1991; cited from earlier work
# [6] = tested on: Type III phosphodiesterase; experiment: Type III phosphodiesterase activity; format: biochemical
# [7] = tested on: Type IV phosphodiesterase; experiment: Type IV phosphodiesterase activity; format: biochemical
# [8] = tested on: A1 receptor; experiment: A1 receptor mediated decrease in heart rate produced by adenosine in the anesthetized guinea pig; format: in vivo
# [9] = tested on: isolated guinea pig trachea; experiment: Isolated guinea pig trachea, contraction produced by N6-cyclohexyl-adenosine; format: cell-based
# [10] = molecular target: T2, adenosine A1 receptor; experiment: biochemical
# [11] = molecular target: T2, adenosine A1 receptor; experiment: A1 receptor affinity: displacement of [3H]cyclohexyladenosine binding in rat brain membranes; conditions: Table 1; ratio of A2 Ki to A1 Ki (selectivity)
# [12] = molecular target: T2, adenosine A1 receptor; parameters: Male Sprague-Dawley rats were sacrificed by decapitation and the membranes were isolated from whole animal brains; from tissue; host or cells: whole brain membranes of male Sprague-Dawley rats; conditions: Dudley et al., 1992; Secrest et al.; cited from earlier work
# T1 sequence (P30543 whole entry): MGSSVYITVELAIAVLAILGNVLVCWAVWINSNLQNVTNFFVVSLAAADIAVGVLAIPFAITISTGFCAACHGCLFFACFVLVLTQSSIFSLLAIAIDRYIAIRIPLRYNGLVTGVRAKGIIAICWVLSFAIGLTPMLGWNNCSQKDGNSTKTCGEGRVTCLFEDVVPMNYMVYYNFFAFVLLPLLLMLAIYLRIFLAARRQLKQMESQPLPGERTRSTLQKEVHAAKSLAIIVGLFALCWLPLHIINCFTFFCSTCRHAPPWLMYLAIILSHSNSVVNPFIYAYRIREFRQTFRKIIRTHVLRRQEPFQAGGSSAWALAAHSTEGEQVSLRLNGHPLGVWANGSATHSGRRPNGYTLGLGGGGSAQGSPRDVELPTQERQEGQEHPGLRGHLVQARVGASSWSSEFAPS
smiles,measurement,setting,value
"CCCn1c(=O)c2[nH]c(C3Cc4ccccc4C3)nc2n(CCC)c1=O (racemic) [3,7-Dihydro-8-(2-indanyl)-1,3-dipropyl-1H-purine-2,6-dione]",Ki,[1],8.35 µM
"CCCn1c(=O)c2nc(C(C)c3ccccc3)[nH]c2n(CCC)c1=O (racemic) [3,7-dihydro-8-(1-phenylethyl)-1,3-dipropyl-1H-purine-2,6-dione]",Ki,[1],4.9 µM
"CCCn1c(=O)c2nc(C(CC)Cc3ccccc3)[nH]c2n(CCC)c1=O (racemic) [3,7-dihydro-8-[1-(phenylmethyl)propyl]-1,3-dipropyl-1H-purine-2,6-dione]",Ki,[1],1.23 µM
"CCCn1c(=O)c2[nH]c(C(CC)c3ccccc3)nc2n(CCC)c1=O (racemic) [3,7-dihydro-8-[(±)-phenylpropyl]-1,3-dipropyl-1H-purine-2,6-dione]",A2/A1,[2],20
"CCCn1c(=O)c2nc(C(CO)Cc3ccccc3)[nH]c2n(CCC)c1=O (racemic) [3,7-dihydro-8-[l-(hydroxymethyl)-2-phenylethyl]-1,3-dipropyl-1H-purine-2,6-dione]",Ki,[1],12.8 µM
"CCCn1c(=O)c2[nH]c(C3CCC(=O)C3)nc2n(CCC)c1=O (racemic) [KFM-19, reference compound]",effect on scopolamine-induced learning impairment,[3],significantly antagonized
same,synaptic transmission in the hippocampal slice,[4],enhanced synaptic transmission
same,activity in other animal models of learning and memory,[5],reported to have activity
"CCCn1c(=O)c2[nH]c([C@H](C)Cc3ccccc3)nc2n(CCC)c1=O [3,7-Dihydro-8-[(R)-1-methyl-2-phenylethyl]-1,3-dipropyl-1H-purine-2,6-dione]",effect on Type III phosphodiesterase activity,[6],little effect
same,effect on Type IV phosphodiesterase activity,[7],little effect
same,reversal of A1 receptor mediated decrease in heart rate produced by adenosine,[8],completely reversed
same,effect on contraction produced by N6-cyclohexyl-adenosine,[9],very little effect
same,difference from VEH-VEH group (latency),[3]; 25 mg/kg i.p. plus scopolamine […],did not differ significantly from the VEH--VEH group
same,reversal of scopolamine-induced impairment of water maze learning,"[3]; 25 mg/kg i.p., scopolamine […]",partially reversed
same,effect on scopolamine-induced learning impairment,[3],significantly antagonized
same,synaptic transmission in the hippocampal slice,[4],enhanced synaptic transmission
same,LTP stabilized level following tetanus,[4]; 5 μM,216%
same,population spike before and after induction of LTP,[4],increased the basal population spike before and after induction of LTP
same,time course of LTP following tetanus,[4],rose sharply and remained stable throughout the observation period
"CCCn1c(=O)c2nc([C@H](C)c3ccccc3)[nH]c2n(CCC)c1=O [3,7-Dihydro-8-[(R)-1-phenylethyl]-1,3-dipropyl-1H-purine-2,6-dione]",Ki,[1],4.22 µM
"CCCn1c(=O)c2nc([C@@H](C)c3ccccc3)[nH]c2n(CCC)c1=O [3,7-Dihydro-8-[(S)-1-phenylethyl]-1,3-dipropyl-1H-purine-2,6-dione]",Ki,[1],12.9 µM
"CCCn1c(=O)c2[nH]c([C@@H](CC)c3ccccc3)nc2n(CCC)c1=O [3,7-Dihydro-8-[(S)-1-phenylpropyl]1,3-dipropyl-1H-purine-2,6-dione]",Ki,[1],0.848 µM
same,A2/A1,[2],14
same,Ki,[10],0.0607 µM
"CCCn1c(=O)c2[nH]c([C@H](CC)c3ccccc3)nc2n(CCC)c1=O [3,7-dihydro-8-[(R)-1-phenylpropyl]1,3-dipropyl-1H-purine-2,6-dione]",Ki,[1],3.51 µM
same,"difference from VEH-SCOP group (latency), block 3","[3]; 5 mg/kg i.p. plus scopolamine 1.2 mg/kg, p<0.05",differed from the VEH-SCOP group on block 3 (p<0.05)
same,reversal of scopolamine-induced impairment,[3]; 5 mg/kg i.p.,reversed the scopolamine-induced impairment
same,"difference from VEH-SCOP group (latency), blocks 2 and 3",[3]; 25 mg/kg i.p. plus scopolamine 1.2 mg/kg,differed from the VEH-SCOP group on blocks 2 and 3
same,reversal of scopolamine-induced impairment,[3]; 25 mg/kg i.p.,reversed the scopolamine-induced impairment
same,difference from VEH-VEH group (latency),[3]; 5 and 25 mg/kg i.p. plus scopolamine 1.2 mg/kg,did not differ significantly from the VEH--VEH group
same,effect on scopolamine-induced learning impairment,[3],significantly antagonized
same,synaptic transmission in the hippocampal slice,[4],enhanced synaptic transmission
same,LTP stabilized level following tetanus,[4]; 2.5 μm,270%
same,population spike before and after induction of LTP,[4],increased the basal population spike before and after induction of LTP
same,time course of LTP following tetanus,[4],rose sharply and remained stable throughout the observation period
same,Ki,[2],0.0232 µM
same,A2/A1,[11],153
same,A1 antagonist potency and selectivity,[12],potent and selective A1 antagonists
"CN1[C@@H]2C[C@@H](OC(=O)[C@H](CO)c3ccccc3)C[C@H]1[C@@H]1O[C@@H]12 [scopolamine, reference compound]",VEH-SCOP group versus VEH-VEH group (latency),"[3]; scopolamine 1.2 mg/kg i.p., p<0.05",differed significantly from the VEH--VEH group (p<0.05)
same,impairment of acquisition of the water maze task,"[3]; scopolamine, dose-dependent",dose-dependently impairs acquisition of the water maze task
